In brackets after ≈: the same amount, converted by molar mass. Positions of bridges follow the written chain, without caps; N, C: chain ends. Non-standard residues stand in square brackets, D forms with d. Residues, ends and D or L forms follow the SMILES beside them. *: point of attachment. Ethyl(2-butanoyloxy) = CCCC(=O)OCC*; Ethyl(2-propionyloxy) = CCC(=O)OCC*; hCys = N[C@@H](CCS)C(=O)O; Octanoyl = CCCCCCCC(=O)*; Dab = NCC[C@H](N)C(=O)O; Dap = NC[C@H](N)C(=O)O; Mpa = O=C(O)CCS
Assays:
[1] = system: E. coli ATCC 25922; type: cell-based, Escherichia coli; conditions: ATCC 25922
Text: (§1) All 81 compounds prepared in Examples 2 and 3 underwent screening against a panel of Gram-negative bacterium to assess their ability to inhibit bacterial growth. […] The median value is presented.

[2] = system: A. baumannii ATCC 19606; type: cell-based, Acinetobacter baumannii; conditions: ATCC 19606
Text: as §1

[3] = system: P. aeruginosa ATCC 27853; type: cell-based, Pseudomonas aeruginosa; conditions: ATCC 27853
Text: as §1

[4] = system: K. pneumoniae ATCC 33495; type: cell-based, Klebsiella pneumoniae; conditions: ATCC 33495
Text: as §1

[5] = system: K. pneumoniae ATCC 700603; type: cell-based, Klebsiella pneumoniae; conditions: ATCC 700603
Text: as §1

[6] = system: K. pneumoniae ATCC MS6671; type: cell-based, Klebsiella pneumoniae; conditions: ATCC MS6671
Text: as §1

[7] = system: E. coli ATCC MS8345; type: cell-based, Escherichia coli; conditions: ATCC MS8345
Text: as §1
Expansion of the polymyxin macrocycle by substituting […]) offered little advantage in antimicrobial activity but was generally well tolerated although for A. baumanni and P. aeruginosa this was detrimental.

Row | Compound | MIC E. coli ATCC 25922 [1] | also measured
1 | CCC(=O)OCCSC[C@@H](N)C(=O)N[C@H](C(=O)N[C@@H](CN)C(=O)N[C@H]1CCNC(=O)[C@H]([C@@H](C)O)NC(=O)[C@H](CCN)NC(=O)[C@H](CCN)NC(=O)[C@H](CC(C)C)NC(=O)[C@@H](Cc2ccccc2)NC(=O)[C@H](CCN)NC1=O)[C@@H](C)O [Compound 82] (H-[dC](Ethyl(2-propionyloxy))T[Dap][Dab][Dab][dF]L[Dab][Dab]T; lactam 4-C) | 1 µg/mL (≈ 0.868 µM) | –
2 | CCC(=O)OCCSCCC(=O)N[C@H](C(=O)N[C@@H](CN)C(=O)N[C@H]1CCNC(=O)[C@H]([C@@H](C)O)NC(=O)[C@H](CCN)NC(=O)[C@H](CCN)NC(=O)[C@H](CC(C)C)NC(=O)[C@@H](Cc2ccccc2)NC(=O)[C@H](CCN)NC1=O)[C@@H](C)O [Compound 83] ([Mpa](Ethyl(2-propionyloxy))T[Dap][Dab][Dab][dF]L[Dab][Dab]T; lactam 4-C) | 2 µg/mL (≈ 1.76 µM) | –
3 | CCC(=O)OCCSCC[C@H](N)C(=O)N[C@H](C(=O)N[C@@H](CN)C(=O)N[C@H]1CCNC(=O)[C@H]([C@@H](C)O)NC(=O)[C@H](CCN)NC(=O)[C@H](CCN)NC(=O)[C@H](CC(C)C)NC(=O)[C@@H](Cc2ccccc2)NC(=O)[C@H](CCN)NC1=O)[C@@H](C)O [Compound 84] (H-[hCys](Ethyl(2-propionyloxy))T[Dap][Dab][Dab][dF]L[Dab][Dab]T; lactam 4-C) | 32 µg/mL (≈ 27.4 µM) | –
4 | CCC(=O)OCCSC[C@H](N)C(=O)N[C@H](C(=O)N[C@H](CO)C(=O)N[C@H]1CCNC(=O)[C@H]([C@@H](C)O)NC(=O)[C@H](CCN)NC(=O)[C@H](CCN)NC(=O)[C@H](CC(C)C)NC(=O)[C@@H](Cc2ccccc2)NC(=O)[C@H](CCN)NC1=O)[C@@H](C)O [Compound 85] (H-C(Ethyl(2-propionyloxy))T[dS][Dab][Dab][dF]L[Dab][Dab]T; lactam 4-C) | >128 µg/mL | –
5 | CCC(=O)OCCSC[C@@H](N)C(=O)N[C@H](C(=O)N[C@H](CO)C(=O)N[C@H]1CCNC(=O)[C@H]([C@@H](C)O)NC(=O)[C@H](CCN)NC(=O)[C@H](CCN)NC(=O)[C@H](CC(C)C)NC(=O)[C@@H](Cc2ccccc2)NC(=O)[C@H](CCN)NC1=O)[C@@H](C)O [Compound 86] (H-[dC](Ethyl(2-propionyloxy))T[dS][Dab][Dab][dF]L[Dab][Dab]T; lactam 4-C) | 2 µg/mL (≈ 1.73 µM) | –
6 | CCC(=O)OCCSCCC(=O)N[C@H](C(=O)N[C@H](CO)C(=O)N[C@H]1CCNC(=O)[C@H]([C@@H](C)O)NC(=O)[C@H](CCN)NC(=O)[C@H](CCN)NC(=O)[C@H](CC(C)C)NC(=O)[C@@H](Cc2ccccc2)NC(=O)[C@H](CCN)NC1=O)[C@@H](C)O [Compound 87] ([Mpa](Ethyl(2-propionyloxy))T[dS][Dab][Dab][dF]L[Dab][Dab]T; lactam 4-C) | 16 µg/mL (≈ 14.1 µM) | –
7 | CCC(=O)OCCSCC[C@H](N)C(=O)N[C@H](C(=O)N[C@H](CO)C(=O)N[C@H]1CCNC(=O)[C@H]([C@@H](C)O)NC(=O)[C@H](CCN)NC(=O)[C@H](CCN)NC(=O)[C@H](CC(C)C)NC(=O)[C@@H](Cc2ccccc2)NC(=O)[C@H](CCN)NC1=O)[C@@H](C)O [Compound 88] (H-[hCys](Ethyl(2-propionyloxy))T[dS][Dab][Dab][dF]L[Dab][Dab]T; lactam 4-C) | >64 µg/mL | –
8 | CCCC(=O)OCCSC[C@@H](N)C(=O)N[C@H](C(=O)N[C@@H](CCN)C(=O)N[C@H]1CCNC(=O)[C@H]([C@@H](C)O)NC(=O)[C@H](CCN)NC(=O)[C@H](CCN)NC(=O)[C@H](CC(C)C)NC(=O)[C@@H](Cc2ccccc2)NC(=O)[C@H](CCN)NC1=O)[C@@H](C)O [Compound 89] (H-[dC](Ethyl(2-butanoyloxy))T[Dab][Dab][Dab][dF]L[Dab][Dab]T; lactam 4-C) | – | MIC A. baumannii ATCC 19606 [2]: 4 µg/mL (≈ 3.39 µM); MIC P. aeruginosa ATCC 27853 [3]: 2 µg/mL (≈ 1.69 µM); MIC K. pneumoniae ATCC 33495 [4]: 1 µg/mL (≈ 0.847 µM); MIC K. pneumoniae ATCC 700603 [5]: 1 µg/mL (≈ 0.847 µM); MIC K. pneumoniae ATCC MS6671 [6]: >32 µg/mL; MIC E. coli ATCC MS8345 [7]: 32 µg/mL (≈ 27.1 µM)
9 | CCCCCCCC(=O)N[C@@H](CCN)C(=O)N[C@H](C(=O)N[C@@H](CCN)C(=O)N[C@H]1CCNC(=O)[C@H]([C@@H](C)O)NC(=O)[C@H](CCN)NC(=O)[C@H](CCN)NC(=O)[C@H](CC(C)C)NC(=O)[C@@H](Cc2ccccc2)NC(=O)[C@H](CCN)NC1=O)[C@@H](C)O [polymyxin B3, reference compound] (Octanoyl-[Dab]T[Dab][Dab][Dab][dF]L[Dab][Dab]T; lactam 4-C (inferred); N-terminus assumed) | – | activity against E. coli (MIC) [1]: 0.25 µg/mL
